Laboratory results as given in US8865887B2, “Method for synthesizing calixarene and/or cyclodextrin copolymers, terpolymers and tetrapolymers, and uses thereof” (priority 2009, dated 2014).
Converted amounts (≈) assume the structure as drawn. Like-named read-outs stand apart in the source and are kept apart here.

Experiments:
[1] = Description: NIM is used to treat extra-articular and articular inflammatory forms. […] Phase solubility study was carried out according to the method described by Higuchi to study the influence of the complexation of different cyclodextrins on the solubility of NIM. Native cyclodextrins, modified cyclodextrins, cyclodextrin copolymers and cyclodextrin tetrapolymers were used. The cyclodextrin tetrapolymer, based on 35% of alpha-cyclodextrin, 35% beta-cyclodextrin and 30% gamma-cyclodextrin, is synthesized by direct melt polycondensation according to the example 1 and the ratio cyclodextrin/citric acid is 1/3.
Phase Solubility Method: Higuchi's Method
Suspensions were shaken at a temperature of 37° C. on a rotary flask shaker for 7 days and supernatants were filtered through polycarbonate membrane (0.45 μm pore size).

[2] = native cyclodextrins; cited from earlier work

| Kc [1] | [Nimésulid] max. ([1]; 7 days) | SMILES | [Nimésulid] max. [1] | solubility in water [2] |
| --- | --- | --- | --- | --- |
| 0.473 mM⁻¹ | 0.09249 mg/mL | OC[C@H]1O[C@@H]2O[C@H]3[C@H](O)[C@@H](O)[C@@H](O[C@H]4[C@H](O)[C@@H](O)[C@@H](O[C@H]5[C@H](O)[C@@H](O)[C@@H](O[C@H]6[C@H](O)[C@@H](O)[C@@H](O[C@H]7[C@H](O)[C@@H](O)[C@@H](O[C@H]8[C@H](O)[C@@H](O)[C@@H](O[C@H]1[C@H](O)[C@H]2O)O[C@@H]8CO)O[C@@H]7CO)O[C@@H]6CO)O[C@@H]5CO)O[C@@H]4CO)O[C@@H]3CO [beta-CD, β-cyclodextrin] | – | – |
| 0.0646 mM⁻¹ | – | OC[C@H]1O[C@@H]2O[C@H]3[C@H](O)[C@@H](O)[C@@H](O[C@H]4[C@H](O)[C@@H](O)[C@@H](O[C@H]5[C@H](O)[C@@H](O)[C@@H](O[C@H]6[C@H](O)[C@@H](O)[C@@H](O[C@H]7[C@H](O)[C@@H](O)[C@@H](O[C@H]8[C@H](O)[C@@H](O)[C@@H](O[C@H]9[C@H](O)[C@@H](O)[C@@H](O[C@H]1[C@H](O)[C@H]2O)O[C@@H]9CO)O[C@@H]8CO)O[C@@H]7CO)O[C@@H]6CO)O[C@@H]5CO)O[C@@H]4CO)O[C@@H]3CO [gamma-CD, γ-cyclodextrin] | 0.1449 mg/mL | 236 mg/mL (≈ 182 mM) |

| SMILES | Kc [1] | [Nimésulid] max. ([1]; 7 days) | [Nimésulid] max. [1] | solubility in water [2] |
| --- | --- | --- | --- | --- |
| OC[C@H]1O[C@@H]2O[C@H]3[C@H](O)[C@@H](O)[C@@H](O[C@H]4[C@H](O)[C@@H](O)[C@@H](O[C@H]5[C@H](O)[C@@H](O)[C@@H](O[C@H]6[C@H](O)[C@@H](O)[C@@H](O[C@H]7[C@H](O)[C@@H](O)[C@@H](O[C@H]1[C@H](O)[C@H]2O)O[C@@H]7CO)O[C@@H]6CO)O[C@@H]5CO)O[C@@H]4CO)O[C@@H]3CO [alpha-CD, α-cyclodextrin] | 0.045 mM⁻¹ | – | 0.07708 mg/mL | 127 mg/mL (≈ 131 mM) |
